US11773132B2, “Cyclic di-nucleotides as stimulator of interferon genes modulators” (Beijing Xuanyi PharmaSciences Co., Ltd., priority 2017, dated 2023)

Target: T1, Human STING (Homo sapiens, UniProt Q86WV6, G230A/H232R/R293Q/R71H)
T1 construct: host or cells: THP1-Dual cells (human monocytic reporter line)
Assay: THP1-Dual cell assay, IRF pathway reporter luminescence readout (QUANTI-Luc)
Format: cell-based
Conditions: THP1-Dual cells, 24 h, 30 μM, Table 2
Procedure: STING pathway activation by the compounds described herein was measured using THP-1 dual cells. These cells are THP1 monocytes that have been modified to be reporters for the IRF pathway, which is activated by STING agonists in these cells.
THP1-Dual cells (obtained from Invivogen) are maintained in growth medium with 100 ug/ml of Zeocin and 10 ug/ml of blasticidin at 37° C., 5% CO2, the cells were passaged every 3 days by inoculating 7×10^5 cells per ml and centrifuged at 1000 rpm for 5 min. Supernatant was removed and THP-1 Dual cells were re-suspended at 5×10^5 cells/ml in fresh pre-warmed growth medium.
[…]. 50 ul of Cell suspension (about 2.5×10^4 cells per well) was added in 384-well plate, which was incubated for 24 hours at 37° C., 5% CO2. QUANTI-Luc was prepared and used following the manufacturer's instructions, 5×10^3 cells per well were seeded in 40 μl medium and incubated overnight. Luminometer was set with the following parameters: 50u of injection, end-point measurement with a 4 second start time and 0.1 second reading time. 10 ul of THP-1 Dual cell culture medium per well was added into a 96-well white (opaque) plate, luminescence was measured and calculated.

T1 sequence (Q86WV6 whole entry R71H/G230A/H232R/R293Q): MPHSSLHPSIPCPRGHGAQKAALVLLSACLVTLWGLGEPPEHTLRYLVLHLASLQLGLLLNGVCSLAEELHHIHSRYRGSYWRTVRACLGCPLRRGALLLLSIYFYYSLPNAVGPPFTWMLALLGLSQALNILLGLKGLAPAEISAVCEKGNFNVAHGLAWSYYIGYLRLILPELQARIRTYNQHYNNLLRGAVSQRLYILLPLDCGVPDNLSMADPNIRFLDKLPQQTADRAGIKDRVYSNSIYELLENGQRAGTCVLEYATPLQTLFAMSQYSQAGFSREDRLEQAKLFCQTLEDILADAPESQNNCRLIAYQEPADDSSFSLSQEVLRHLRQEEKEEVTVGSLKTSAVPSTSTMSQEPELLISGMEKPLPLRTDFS

Compound	Readout Average	Readout n = 1	Readout n = 2
BP1(=O)OC[C@H]2O[C@@H](n3cnc4c(NCc5ccccc5)ncnc43)[C@H](OP(=O)(S)OC[C@H]3O[C@@H](n4cnc5c(NCc6ccccc6)ncnc54)[C@H](O)[C@@H]3O1)[C@@H]2O (single isomer, unassigned) [Compound D2]	23960	18350	29570
BP1(=O)OC[C@H]2O[C@@H](n3cnc4c(NCc5ccccc5)ncnc43)[C@H](OP(=O)(S)OC[C@H]3O[C@@H](n4cnc5c(NCc6ccccc6)ncnc54)[C@H](O)[C@@H]3O1)[C@@H]2O (single isomer, unassigned) [Compound D3]	273875	289010	258740
